Assay results published in patent publication US20120214830A1, “BIOLOGICAL MARKERS PREDICTIVE OF ANTI-CANCER RESPONSE TO INSULIN-LIKE GROWTH FACTOR-1 RECEPTOR KINASE INHIBITORS IN HEPATOCELLULAR CARCINOMA” (OSI Pharmaceuticals, LLC, priority 2011, published 2012).

Columns and labels:
HLF = assay: Cell Titer-Glo proliferation assay, 72 h; type: cell-based; conditions: Homo sapiens, HLF cells
Experimental: (§1) Two sensitive epithelial cell lines Hep3B (A), JHH-7 (B), one insensitive epithelial cell line JHH-1(C) or one insensitive mesenchymal-like cell line HLF (D) were treated serial dilution of OSI-906 in the presence of Erlotinib for 72 hours, and sensitivity to treatment was measured by proliferation assays.
(§2) Cell lines: Twenty-one HCC cell lines were purchased from either ATCC (HepG2, Hep3B, PLC/PRF/5, SK-Hepl, SNU-182, SNU-387, SNU-398, SNU-423, SNU-449, SNU-475) or Health Science Research Resources Bank (Japan) (HUH-1, HUH-6, HUH-7, HLE, HLF, JHH-1, JHH-2, JHH-4, JHH-5, JHH-6, JHH-7). All the cell lines were maintained in media as described by the vendors. For growth inhibition assays, cells were plated and allowed to proliferate for 24 hours. After 24 hours, cells had reached approximately 15% confluency, at which time serial dilutions of OSI-906 were added and the cells grown for a further 72 hours. Cell viability was assayed using the Cell Titer-Glo reagent (Promega Corp., Madison, Wis.).
(§3) Proliferation Assay. Proliferation was assayed using Cell Titer Glo assays (Promega) and was determined 72 hours following dosing with OSI-906. The basis of the assay is a luminescent quantitation of ATP present in a cell culture plate well. In essence, the greater the number of viable cells in the well, the greater the level of ATP present. The assay utilizes a substrate that binds ATP to produce a luminescent signal, which can be read on a luminometer. Unless otherwise noted, the manufacturer's instructions were followed exactly. Briefly, on Day 1, cells were plated in 120 μl of 10% serum-containing growth media at a density of 4000 cells/well in a white polystyrene 96 well assay plate. On day 2, cells were treated with 15 μl of 10× concentration of the IGF-1R inhibitor (e.g. OSI-906) or DMSO alone for a final well volume of 150 μl. After 72 h incubation with the inhibitor, the cells were assayed. Results were calculated as a fraction of the DMSO controlled cells.

Hep 3B = assay: Cell Titer-Glo proliferation assay, 72 h; type: cell-based; conditions: Homo sapiens, Hep3B, Hep 3B cells
Experimental: as §1, §2, §3

JHH-1 = assay: Cell Titer-Glo proliferation assay, 72 h; type: cell-based; conditions: Homo sapiens, JHH1, JHH-1 cells
Experimental: as §1, §2, §3

JHH-7 = assay: Cell Titer-Glo proliferation assay, 72 h; type: cell-based; conditions: Homo sapiens, JHH7, JHH-7 cells
Experimental: as §1, §2, §3

Hep G2 = assay: Cell Titer-Glo proliferation assay, 72 h; type: cell-based; conditions: Homo sapiens, HepG2, Hep G2 cells
Experimental: as §3, with “Cell lines: Twenty-one HCC cell lines were purchased from either ATCC (HepG2, Hep3B, PLC/PRF/5, SK-Hepl, SNU-182, SNU-387, SNU-398, SNU-423, SNU-449, SNU-475) or Health Science Research Resources Bank (Japan) (HUH-1, HUH-6, HUH-7, HLE, HLF, JHH-1, JHH-2, JHH-4, JHH-5, JHH-6, JHH-7). All the cell lines were maintained in media as described by the vendors. For growth inhibition assays, cells were plated and allowed to proliferate for 24 hours. After 24 hours, cells had reached approximately 15% confluency, at which time serial dilutions of OSI-906 were added and the cells grown for a further 72 hours. Cell viability was assayed using the Cell Titer-Glo reagent (Promega Corp., Madison, Wis.). Proliferation Assay.” for “Proliferation Assay.”

Huh-1 = assay: Cell Titer-Glo proliferation assay, 72 h; type: cell-based; conditions: Homo sapiens, Huh-1 cells
Experimental: as §3, with “Cell lines: Twenty-one HCC cell lines were purchased from either ATCC (HepG2, Hep3B, PLC/PRF/5, SK-Hepl, SNU-182, SNU-387, SNU-398, SNU-423, SNU-449, SNU-475) or Health Science Research Resources Bank (Japan) (HUH-1, HUH-6, HUH-7, HLE, HLF, JHH-1, JHH-2, JHH-4, JHH-5, JHH-6, JHH-7). All the cell lines were maintained in media as described by the vendors. For growth inhibition assays, cells were plated and allowed to proliferate for 24 hours. After 24 hours, cells had reached approximately 15% confluency, at which time serial dilutions of OSI-906 were added and the cells grown for a further 72 hours. Cell viability was assayed using the Cell Titer-Glo reagent (Promega Corp., Madison, Wis.). Proliferation Assay.” for “Proliferation Assay.”

Huh-6 = assay: Cell Titer-Glo proliferation assay, 72 h; type: cell-based; conditions: Homo sapiens, Huh-6 cells
Experimental: as §3, with “Cell lines: Twenty-one HCC cell lines were purchased from either ATCC (HepG2, Hep3B, PLC/PRF/5, SK-Hepl, SNU-182, SNU-387, SNU-398, SNU-423, SNU-449, SNU-475) or Health Science Research Resources Bank (Japan) (HUH-1, HUH-6, HUH-7, HLE, HLF, JHH-1, JHH-2, JHH-4, JHH-5, JHH-6, JHH-7). All the cell lines were maintained in media as described by the vendors. For growth inhibition assays, cells were plated and allowed to proliferate for 24 hours. After 24 hours, cells had reached approximately 15% confluency, at which time serial dilutions of OSI-906 were added and the cells grown for a further 72 hours. Cell viability was assayed using the Cell Titer-Glo reagent (Promega Corp., Madison, Wis.). Proliferation Assay.” for “Proliferation Assay.”

JHH-2 = assay: Cell Titer-Glo proliferation assay, 72 h; type: cell-based; conditions: Homo sapiens, JHH-2 cells
Experimental: as §3, with “Cell lines: Twenty-one HCC cell lines were purchased from either ATCC (HepG2, Hep3B, PLC/PRF/5, SK-Hepl, SNU-182, SNU-387, SNU-398, SNU-423, SNU-449, SNU-475) or Health Science Research Resources Bank (Japan) (HUH-1, HUH-6, HUH-7, HLE, HLF, JHH-1, JHH-2, JHH-4, JHH-5, JHH-6, JHH-7). All the cell lines were maintained in media as described by the vendors. For growth inhibition assays, cells were plated and allowed to proliferate for 24 hours. After 24 hours, cells had reached approximately 15% confluency, at which time serial dilutions of OSI-906 were added and the cells grown for a further 72 hours. Cell viability was assayed using the Cell Titer-Glo reagent (Promega Corp., Madison, Wis.). Proliferation Assay.” for “Proliferation Assay.”

SK Hep-1 = assay: Cell Titer-Glo proliferation assay, 72 h; type: cell-based; conditions: Homo sapiens, SK-HEP1, SK Hep-1 cells
Experimental: as §3, with “Cell lines: Twenty-one HCC cell lines were purchased from either ATCC (HepG2, Hep3B, PLC/PRF/5, SK-Hepl, SNU-182, SNU-387, SNU-398, SNU-423, SNU-449, SNU-475) or Health Science Research Resources Bank (Japan) (HUH-1, HUH-6, HUH-7, HLE, HLF, JHH-1, JHH-2, JHH-4, JHH-5, JHH-6, JHH-7). All the cell lines were maintained in media as described by the vendors. For growth inhibition assays, cells were plated and allowed to proliferate for 24 hours. After 24 hours, cells had reached approximately 15% confluency, at which time serial dilutions of OSI-906 were added and the cells grown for a further 72 hours. Cell viability was assayed using the Cell Titer-Glo reagent (Promega Corp., Madison, Wis.). Proliferation Assay.” for “Proliferation Assay.”

SNU-387 = assay: Cell Titer-Glo proliferation assay, 72 h; type: cell-based; conditions: Homo sapiens, SNU-387 cells
Experimental: as §3, with “Cell lines: Twenty-one HCC cell lines were purchased from either ATCC (HepG2, Hep3B, PLC/PRF/5, SK-Hepl, SNU-182, SNU-387, SNU-398, SNU-423, SNU-449, SNU-475) or Health Science Research Resources Bank (Japan) (HUH-1, HUH-6, HUH-7, HLE, HLF, JHH-1, JHH-2, JHH-4, JHH-5, JHH-6, JHH-7). All the cell lines were maintained in media as described by the vendors. For growth inhibition assays, cells were plated and allowed to proliferate for 24 hours. After 24 hours, cells had reached approximately 15% confluency, at which time serial dilutions of OSI-906 were added and the cells grown for a further 72 hours. Cell viability was assayed using the Cell Titer-Glo reagent (Promega Corp., Madison, Wis.). Proliferation Assay.” for “Proliferation Assay.”

SNU-398 = assay: Cell Titer-Glo proliferation assay, 72 h; type: cell-based; conditions: Homo sapiens, SNU-398 cells
Experimental: as §3, with “Cell lines: Twenty-one HCC cell lines were purchased from either ATCC (HepG2, Hep3B, PLC/PRF/5, SK-Hepl, SNU-182, SNU-387, SNU-398, SNU-423, SNU-449, SNU-475) or Health Science Research Resources Bank (Japan) (HUH-1, HUH-6, HUH-7, HLE, HLF, JHH-1, JHH-2, JHH-4, JHH-5, JHH-6, JHH-7). All the cell lines were maintained in media as described by the vendors. For growth inhibition assays, cells were plated and allowed to proliferate for 24 hours. After 24 hours, cells had reached approximately 15% confluency, at which time serial dilutions of OSI-906 were added and the cells grown for a further 72 hours. Cell viability was assayed using the Cell Titer-Glo reagent (Promega Corp., Madison, Wis.). Proliferation Assay.” for “Proliferation Assay.”

SNU-449 = assay: Cell Titer-Glo proliferation assay, 72 h; type: cell-based; conditions: Homo sapiens, SNU-449 cells
Experimental: as §3, with “Cell lines: Twenty-one HCC cell lines were purchased from either ATCC (HepG2, Hep3B, PLC/PRF/5, SK-Hepl, SNU-182, SNU-387, SNU-398, SNU-423, SNU-449, SNU-475) or Health Science Research Resources Bank (Japan) (HUH-1, HUH-6, HUH-7, HLE, HLF, JHH-1, JHH-2, JHH-4, JHH-5, JHH-6, JHH-7). All the cell lines were maintained in media as described by the vendors. For growth inhibition assays, cells were plated and allowed to proliferate for 24 hours. After 24 hours, cells had reached approximately 15% confluency, at which time serial dilutions of OSI-906 were added and the cells grown for a further 72 hours. Cell viability was assayed using the Cell Titer-Glo reagent (Promega Corp., Madison, Wis.). Proliferation Assay.” for “Proliferation Assay.”

SNU-475 = assay: Cell Titer-Glo proliferation assay, 72 h; type: cell-based; conditions: Homo sapiens, SNU-475 cells
Experimental: as §3, with “Cell lines: Twenty-one HCC cell lines were purchased from either ATCC (HepG2, Hep3B, PLC/PRF/5, SK-Hepl, SNU-182, SNU-387, SNU-398, SNU-423, SNU-449, SNU-475) or Health Science Research Resources Bank (Japan) (HUH-1, HUH-6, HUH-7, HLE, HLF, JHH-1, JHH-2, JHH-4, JHH-5, JHH-6, JHH-7). All the cell lines were maintained in media as described by the vendors. For growth inhibition assays, cells were plated and allowed to proliferate for 24 hours. After 24 hours, cells had reached approximately 15% confluency, at which time serial dilutions of OSI-906 were added and the cells grown for a further 72 hours. Cell viability was assayed using the Cell Titer-Glo reagent (Promega Corp., Madison, Wis.). Proliferation Assay.” for “Proliferation Assay.”

[1] = system: HUH-1, JHH-5 and HepG2 cells; assay: Proliferation assay with OSI-906 after TGFβ treatment; type: cell-based, human; conditions: cells grown with 10 ng/ml TGFβ for 10 days, HUH-1, JHH-5, HepG2
Experimental: as §3

EC50 (Huh-1; 72 h OSI-906): 0.18 µM
EC50 (Huh-6; 72 h OSI-906): 0.25 µM
EC50 (SNU-387; 72 h OSI-906): > 10 µM
EC50 (SNU-398; 72 h OSI-906): > 10 µM
EC50 (SNU-449; 72 h OSI-906): > 10 µM
EC50 (SNU-475; 72 h OSI-906): > 10 µM
Compound: C[C@]1(O)C[C@@H](c2nc(-c3ccc4ccc(-c5ccccc5)nc4c3)c3c(N)nccn32)C1 [OSI-906, cis-3-[8-amino-1-(2-phenyl-quinolin-7-yl)-imidazo[1,5-a]pyrazin-3-yl]-1-methyl-cyclobutanol]
inhibition at 5 µM (HLF; 5 μM OSI-906, 72 h): < 40%
EC50 (HLF; 72 h OSI-906): > 10 µM
inhibition at 5 µM (Hep 3B; 5 μM OSI-906, 72 h): 67%
EC50 (Hep 3B; 72 h OSI-906): 0.35 µM
inhibition at 5 µM (JHH-1; 5 μM OSI-906, 72 h): < 40%
EC50 (JHH-1; 72 h OSI-906): > 10 µM
inhibition at 5 µM (JHH-7; 5 μM OSI-906, 72 h): 70%
EC50 (JHH-7; 72 h OSI-906): 0.94 µM
inhibition at 5 µM (Hep G2; 5 μM OSI-906, 72 h): 77%
EC50 (Hep G2; 72 h OSI-906): 0.22 µM
inhibition at 5 µM (Huh-1; 5 μM OSI-906, 72 h): 74%
inhibition at 5 µM (Huh-6; 5 μM OSI-906, 72 h): 41%
inhibition at 5 µM (JHH-2; 5 μM OSI-906, 72 h): < 40%
EC50 (JHH-2; 72 h OSI-906): > 10 µM
inhibition at 5 µM (SK Hep-1; 5 μM OSI-906, 72 h): < 40%
EC50 (SK Hep-1; 72 h OSI-906): > 10 µM
inhibition at 5 µM (SNU-387; 5 μM OSI-906, 72 h): < 40%
inhibition at 5 µM (SNU-398; 5 μM OSI-906, 72 h): < 40%
inhibition at 5 µM (SNU-449; 5 μM OSI-906, 72 h): < 40%
inhibition at 5 µM (SNU-475; 5 μM OSI-906, 72 h): < 40%
HCC cell sensitivity to OSI-906 after TGFβ treatment [1]: decreased
